Measured values as given in patent publication US20210386365A1, “BIOMARKERS OF NEUROPATHIC PAIN” (Children`s Medical Center Corporation, priority 2018, published 2021).

Test system: SNI mice
Test: EEG/EMG sleep analysis (NREMS fragmentation by brief awakenings) in spared nerve injury mice treated with analgesic drugs
Type: in vivo
Details: for sleep fragmentation: mice with nerve injury, efficacy at doses active in patients with neuropathic pain
Text: EEG/EMG implantation surgery: C57BL6/j mice were anesthetized with isoflurane gas (3% induction/2% maintenance) and placed in a stereotaxic apparatus (David Kopf Instruments, Tujunga, Calif.). […] Two flexible EMG electrodes(multistranded stainless steel wire; AS131, Cooner Wire, Chatsworth, Calif.) were inserted into the neck extensor muscles. All electrodes were previously soldered to a six-pin connector (MMX852-10-006-10-001000; Mill-Maz Mfg. Corp., Oyster Bay, N.Y.) and covered with epoxy glue to ensure insulation. The headmount was affixed to the animal's skull with dental acrylic cement, and the scalp wound was sutured closed behind the headmount. Mice were given meloxicam (5 mg/kg, i.p.) before they regained consciousness and then daily for 3 days and were housed singly after surgery.
EEG/EMG acquisition: Ten to fifteen days after EEG/EMG implantation, mice were transferred to individual sleep-recording cages (transparent cylindrical cage, 12″ diameter and 12″ height) in a sound-attenuated chamber with a 12:12 h light-dark cycle, ad libitum food and water, and connected to a tethered pre-amplifier (100× gain, 0.5 Hz high-pass filter for EEG, 10 Hz high-pass filter for EMG; Pinnacle Technology Inc., Lawrence, Kans., USA). The other end of the tether was plugged into a low-torque commutator (8204, Pinnacle Technology Inc., Lawrence, Kans., USA) for freely moving recordings. A data conditioning and acquisition system (DCAS, 8206) performed secondary amplification and filtering (low-pass filter: 100 Hz for EEG, 200 Hz for EMG). Mice habituated for 3-5 days to the recording setup before their baseline sleep-wake and sensory behaviors were measured.
Spared nerve injury (SNI): surgery was performed under 3% induction/2% maintenance with isoflurane on adult mice (8 to 12 weeks old). The tibial and common peroneal branches of the sciatic nerve were tightly ligated with a 5.0 silk suture and transected distally, while the sural nerve was left intact (Decosterd and Woolf, 2000). After injury, incision was sutured and mice were allowed to recover on heated pads before being returned to their homecage. The surgeon who performed the SNI was blinded to the genotype. This model causes permanent pain hypersensitivity. Sciatic nerve crush (SNcrush): surgery was performed under 3% induction/2% maintenance with isoflurane on adult mice (8 to 12 weeks old). The left sciatic nerve was exposed just below the sciatic notch under sterile conditions and then crushed using Dumont #5/45 forceps for 30 seconds under a dissection microscope. After the nerve injury, the incision wound was sutured and animals were allowed to recover on heated pads before being returned to their home cage. The surgeon who performed the SNcrush was blinded to the treatment. This model causes transient hypersensitivity before return to normal sensitivity. Sham control: surgery was performed under 3% induction/2% maintenance with isoflurane on adult mice (8 to 12 weeks old). The left sciatic nerve was exposed but left intact and the animals were allowed to recover on heated pads before being returned to their home cage.
EEG and EMG signals were digitized at a sampling rate of 400 Hz through Sirenia® Acquisition software (Pinnacle Technology Inc, Lawrence, Kans., USA) and converted to European Data Format (.EDF). Using SleepSign® for Animal (Kissei Comtec Co., Japan) software, EEG and EMG signals were digitally filtered (EEG, 0.5-100 Hz; EMG, 10-200 Hz) and scored semi-automatically using 10-s epochs, as wake, NREMS or REMS. This preliminary scoring was visually inspected by a trained experimenter, who was blinded to the experimental conditions, and corrected when appropriate. To evaluate sleep fragmentation, transient waking events occurring during NREMS were evaluated: these brief awakenings (BAs) were defined by a high-frequency low-amplitude EEG associated with an increase of EMG tone ranging from 2-15 s (Franken et al., 1991; Tobler et al., 1997). […]

SMILES	average length of NREM (SNI mice, carbamazepine 5 mg/kg versus saline, FIGS. 8E-8G)	sleep fragmentation	total amount of sleep (SNI mice with and without GBP treatment, FIG. 8C)	latency on sleep (time from full wakefulness to sleep) (SNI mice with and without GBP treatment, FIG. 8D)	time after administration at which effects on NREMS length were the strongest (SNI mice, FIG. 8B) [h]	sedation (SNI mice, gabapentin treatment)	average length of NREMS (SNI mice, gabapentin treatment, FIG. 8A)
NC(=O)N1c2ccccc2C=Cc2ccccc21 [carbamazepine]	restored the average length of NREM	dose-dependently normalize sleep fragmentation	–	–	–	–	–
NCC1(CC(=O)O)CCCCC1 [gabapentin]	–	dose-dependently normalize sleep fragmentation	not affected	slight increase	0 to 2	without causing sedation	restored the average length of NREMS
